In PubChem BioAssay AID1259407 (Chemical Carcinogenesis Research Information System (CCRIS), 2018) one finds mutagenic call data, which are given here for 3 compounds.

In this data set the test system is CCRIS mutagenicity, Ames/micronucleus/aberration tests. Nature of the data set: CCRIS mutagenicity studies.
Setting [1] is: Test System: AMES SALMONELLA TYPHIMURIUM, Strain/Indicator: TA98, Metabolic Activation: NONE.
Where [2] appears, read: Test System: AMES SALMONELLA TYPHIMURIUM, Strain/Indicator: TA100, Metabolic Activation: NONE.

Calls of active or inactive are those of the source. No rule for the calls is given here.

Regarding `C[Si](C)(C)N[Si](C)(C)C`, the mutagenic call is “inactive; negative” (Test System: AMES SALMONELLA TYPHIMURIUM, Strain/Indicator: TA98, Metabolic Activation: HAMSTER, LIVER, S-9, AROCLOR 1254 (10%), Method: STANDARD PLATE); “inactive; negative” (Test System: AMES SALMONELLA TYPHIMURIUM, Strain/Indicator: TA98, Metabolic Activation: NONE, Method: STANDARD PLATE); “inactive; negative” (Test System: AMES SALMONELLA TYPHIMURIUM, Strain/Indicator: TA98, Metabolic Activation: RAT, LIVER, S-9, AROCLOR 1254 (10%), Method: STANDARD PLATE); “inactive; negative” (Test System: AMES SALMONELLA TYPHIMURIUM, Strain/Indicator: TA100, Metabolic Activation: HAMSTER, LIVER, S-9, AROCLOR 1254 (10%), Method: STANDARD PLATE); “inactive; negative” (Test System: AMES SALMONELLA TYPHIMURIUM, Strain/Indicator: TA100, Metabolic Activation: NONE, Method: STANDARD PLATE); “inactive; negative” (Test System: AMES SALMONELLA TYPHIMURIUM, Strain/Indicator: TA100, Metabolic Activation: RAT, LIVER, S-9, AROCLOR 1254 (10%), Method: STANDARD PLATE). Besides, the mutagenic call was “inactive; negative” (Test System: AMES SALMONELLA TYPHIMURIUM, Strain/Indicator: TA1535, Metabolic Activation: HAMSTER, LIVER, S-9, AROCLOR 1254 (10%), Method: STANDARD PLATE); “inactive; negative” (Test System: AMES SALMONELLA TYPHIMURIUM, Strain/Indicator: TA1535, Metabolic Activation: NONE, Method: STANDARD PLATE); “inactive; negative” (Test System: AMES SALMONELLA TYPHIMURIUM, Strain/Indicator: TA1535, Metabolic Activation: RAT, LIVER, S-9, AROCLOR 1254 (10%), Method: STANDARD PLATE); “inactive; negative” (Test System: AMES SALMONELLA TYPHIMURIUM, Strain/Indicator: TA1537, Metabolic Activation: HAMSTER, LIVER, S-9, AROCLOR 1254 (10%), Method: STANDARD PLATE); “inactive; negative” (Test System: AMES SALMONELLA TYPHIMURIUM, Strain/Indicator: TA1537, Metabolic Activation: NONE, Method: STANDARD PLATE); “inactive; negative” (Test System: AMES SALMONELLA TYPHIMURIUM, Strain/Indicator: TA1537, Metabolic Activation: RAT, LIVER, S-9, AROCLOR 1254 (10%), Method: STANDARD PLATE). Also, the mutagenic call reads like this: (Test System: AMES SALMONELLA TYPHIMURIUM, Strain/Indicator: TA1538, Metabolic Activation: HAMSTER, LIVER, S-9, AROCLOR 1254 (10%), Method: STANDARD PLATE) “inactive; negative”; (Test System: AMES SALMONELLA TYPHIMURIUM, Strain/Indicator: TA1538, Metabolic Activation: NONE, Method: STANDARD PLATE) “inactive; negative”; (Test System: AMES SALMONELLA TYPHIMURIUM, Strain/Indicator: TA1538, Metabolic Activation: RAT, LIVER, S-9, AROCLOR 1254 (10%), Method: STANDARD PLATE) “inactive; negative”; (Test System: MOUSE LYMPHOMA, Strain/Indicator: L5178Y (TK+/TK-), Metabolic Activation: NONE, Method: SUSPENSION/PLATE) “inactive; negative. reevaluation of results: inconclusive”.

Turning to `O=C(N[C@@H](Cc1ccc(Cl)cc1)C(=O)O)OCc1ccccc1`, the mutagenic call by setting is: under setting [1], “inactive; negative”; under setting [2], “active; positive”; (Test System: AMES SALMONELLA TYPHIMURIUM, Strain/Indicator: TA1535, Metabolic Activation: NONE) “inactive; negative”; (Test System: AMES SALMONELLA TYPHIMURIUM, Strain/Indicator: TA1537, Metabolic Activation: NONE) “inactive; negative”; (Test System: B. SUBTILIS, Strain/Indicator: BD190 REC, Metabolic Activation: NONE, Method: SPOT TEST) “active; positive”; (Test System: E. COLI, Strain/Indicator: AB2462 UVRA, Metabolic Activation: NONE, Method: SPOT TEST) “active; positive”. Under “Test System: E. COLI, Strain/Indicator: WP6 POLA, Metabolic Activation: NONE, Method: SPOT TEST”, the mutagenic call was “inactive; negative”.

Turning to `O=C(O)[C@@H]1Cc2c([nH]c3ccccc23)[C@H]([C@H]2CCNC2=S)N1`, the mutagenic call is “inactive; negative” under setting [1]; “inactive; negative” (Test System: AMES SALMONELLA TYPHIMURIUM, Strain/Indicator: TA98, Metabolic Activation: S-9); “inactive; negative” under setting [2]; “inactive; negative” (Test System: AMES SALMONELLA TYPHIMURIUM, Strain/Indicator: TA100, Metabolic Activation: S-9).
